In patent EP0412158A1, “ONCOSTATIC DRUG” (priority 1987, dated 1988):
Several values for one entry are separate records, joined by “and”; a condition that tells them apart may be missing. Equal entries are not always repeated. Marks after values point to notes of the source that are not given here.

Assays:
methyl cholanthrene A [1] = experiment: Methyl cholanthrene A tumor, evaluation by elongation of period of survival (Examples 31, 34 and 35); type: in vivo, female BALB/C mice
Protocol: The active compounds, M to 0, mentioned above were severally dissolved in distilled water to obtain aqueous solutions containing the compounds in a fixed concentration of 10 mg/ml. To be specific, to female BALB/C mice (five weeks old) to which methyl cholanthrene A had been transplanted in a ratio of 1.0 x 10^5 cells per mouse, […] for 9 consecutive days to determine the mice's periods of survival. For comparison, mice to which no aqueous solution was administered and mice to which aminonitrosourea was administered were similarly tested.

[2] = test system: methyl cholanthrene A tumor; experiment: Methyl cholanthrene A tumor, evaluation by size of tumor (Examples 31 to 33); type: in vivo, female BALB/C mice; design: Average weight of tumor ± SE / Range of average tumor weight after elapse of 21 days ± SE: unit not given here; settings: 25 mg/kg, ip × 9
Protocol: A heteropoly acid salt, Na5[IM06O24]•34H2O (Compound M), and other compounds (Compounds N and O ) were severally dissolved in distilled water to obtain aqueous solutions containing the salts in a fixed concentration of 10 mg/ml. To female BALB/C mice (five weeks old) to which methyl cholanthrene A tumor had been transplanted, the aqueous solutions were administered to test the compounds for antineoplastic activity. To be specific, the methyl cholanthrene A was transplanted to the mice at a ratio of 1.0 x 10^5 cells per mouse and the aqueous solutions were administered ([…]) for 9 consecutive days by intraperitoneal injection. On elapse of 14 and 21 days after the stop of the administration, the sizes of tumors in the mice were measured. For comparison, mice to which no aqueous solution was administered and mice to which aminonitrosourea was administered were similarly tested.

MM-46 breast cancer [3] = type: in vivo, female C3H/He mice; settings: 100 mg/kg, ip × 9
Protocol: The active compounds, I to L, mentioned above were severally dissolved in distilled water to obtain aqueous solutions containing the compounds in a fixed concentration of 10 mg/ml. To female C3H/He mice (five weeks old) to which the MM-46 breast cancer had been transplanted in a ratio of 1.0 x 10^5 cells per mouse, the aqueous solutions were continuously administered at a dose of 100 mg/kg of body weight by intraperitoneal injection for nine days to determine the mice's periods of survival. For comparison, mice to which no aqueous solution was administered and mice to which aminonitrosourea was administered were similarly tested.

MM-46 breast cancer [4] = experiment: MM-46 breast cancer, evaluation by size of tumor (Examples 21 to 24); type: in vivo, female C3H/He mice; settings: 100 mg/kg; for Average weight of tumor / Number of tumorless mice /total number of mice: ip × 9; for T/control: ip×9, tumor weight
Protocol: A polymolybdate, K6[Mo7022(02)2]8H20 (Compound I), and the aforementioned other compounds (Compounds J to L) were severally dissolved in distilled water to obtain aqueous solutions containing the compounds in a fixed concentration of 10 mg/mi. To female C3H/He mice (five weeks old) to which MM-46 breast cancer had been transplanted, the aqueous solutions were administered to test the compounds for antineoplastic activity. To be more specific, the MM-46 breast cancer was transplanted to the mice at a ratio of 5.0 x 10^5 cells per mouse and the aqueous solutions were continuously administered (at a dose of 100 mg/kg of body weight) by intraperineal injection for nine days. On elapse of 14 days after the stop of the administration, the size of tumor in the mice was measured. For comparison, mice to which the aqueous solution was not administered and mice to which aminonitroso urea was administered were similarly tested.

[5] = test system: human breast cancer (MX-1); experiment: Human breast cancer MX-1, SRC method (Examples 29 and 30); type: in vivo, female ICR/cd-1 mice
[6] = test system: methyl cholanthrene A tumor; experiment: Antineoplastic activity against transplanted methyl cholanthrene A tumor, evaluation by size of tumor (Examples 1 to 6); type: in vivo, female BALB/C mice; settings: No. 3, 25 mg/kg, ip×9
Protocol: By dissolving alkylammonium salt of polymolybdic acid [NH3C3H7(iso)]s [Mo7O24] • 3H2O (Compound A) and other compounds (Compounds B to D) severally in distilled water, aqueous solutions containing the compounds in a fixed concentration of 10 mg/ml were obtained. These aqueous solutions were administered to female BALB/C mice (five weeks old) to which methyl cholanthrene A tumor had been transplanted to test the compounds for antineoplastic activity. To be specific, methyl cholanthrene A was transplanted to the mice in a ratio of 1.0 x 10^5 cells per mouse and the aqueous solutions were continuously administered to the mice by intraperitoneal injection ([…]) for nine days. On elapse of 14 days following the start of the administration, the tumors in the mice were measured. For comparison, mice to which no antineoplastic .drug was administered and mice to which aminonitroso urea was administered were tested by following the procedure described above.

methyl cholanthrene A [7] = experiment: Methyl cholanthrene A tumor, evaluation by extension of period of survival (Examples 7 to 11); type: in vivo, female BALB/C mice; settings: No. 2, 25 mg/kg
Protocol: The aforementioned compounds, A to D, were severally dissolved in distilled water to obtain aqueous solutions containing the compounds in a fixed concentration of 10 mg/ml. To the female BALB/C mice (five weeks old) to which methyl cholanthrene A had been transplanted in a ratio of 1.0 x 10^5 cells per mouse, […] to determine the mices' periods of survival. For comparison, mice to which no antineoplastic drug was administered and mice to which aminonitroso urea was administered were similarly tested.

[8] = 100 mg/kg ip(×5), individual mice, listed as Compound II
[9] = 200 mg/kg ip(×5), individual mice, listed as Compound II
[10] = 129 mg/kg po(×5), individual mice
[11] = 257 mg/kg po(×5), individual mice

Na3H6 [CrMo6O24] • 8H20 [Compound O]
Average number of days of survival ±SE (methyl cholanthrene A [1]; 25 mg/kg, ip × 9): 35.10±3.16(10)*** * days
ILS (methyl cholanthrene A [1]; 25 mg/kg, ip × 9): 41.0%
Number of mice of no tumor/total number of mice (methyl cholanthrene A [1]; 25 mg/kg, ip × 9, observed 60 days after transplantation): 0/10
Change in body weight after elapse of 10 days (methyl cholanthrene A [1]; mouse, in vivo): (+)1.22
Average weight of tumor ± SE ([2]; after elapse of 14 days): 585.6±166.8 (10)
T/C ([2]; tumor weight after 14 days): 0.784
T/C ([2]; tumor weight after 21 days): 0.832

[NH3 (iso)]6 [Mo7O22(O2)2] • 5H20 [Compound J]
Average number of days of survival (MM-46 breast cancer [3]): 40.6±4.1(6) days
Average weight of tumor after 14 days (MM-46 breast cancer [3]): 385±152 (8) mg
Ratio of elongation of life (5) (MM-46 breast cancer [3]): 146.2
Average weight of tumor (MM-46 breast cancer [4]): 385.1±152.3(10 ) mg
Number of tumorless mice /total number of mice (MM-46 breast cancer [4]): 5/10
T/control (MM-46 breast cancer [4]): 0.135
T/C ([5]; 100 mg/kg ip(×5)): 63.53* %
T7/To ([5]; 100 mg/kg ip(×5), group mean): 0.876±0.037
T7/To [5, 8]: 0.913 and 0.792 and 0.840 and 0.962
Tumor 7 days after transplantation (T7) [5, 8]: 10.5 omu (2×) and 9.5 omu and 12.5 omu
T/C ([5]; 200 mg/kg ip(×5)): 73.02* %
T7/To ([5]; 200 mg/kg ip(×5), group mean): 1.007±0.087
T7/To [5, 9]: 1.077 and 1.222 and 0.852 and 0.880
Tumor 7 days after transplantation (T7) [5, 9]: 14.0 omu and 11.0 omu (2×) and 11.5 omu
antineoplastic activity ([5]; result in words): same degree of antineoplastic activity as that of HCFU

CCCCCCNC(=O)n1cc(F)c(=O)[nH]c1=O [HCFU(Mifur ol)]
T/C ([5]; 129 mg/kg po(×5)): 61.15* %
T7/To ([5]; 129 mg/kg po(×5), group mean): 0.844±0.040
W7/Wo ([5]; 129 mg/kg po(×5), group mean): 1.104±0.037
Body weight 7 days after transplantation (W7) [5, 10]: 21.3 g and 22.7 g and 21.8 g and 23.7 g
T7/To [5, 10]: 0.929 and 0.885 and 0.741 and 0.821
Tumor 7 days after transplantation (T7) [5, 10]: 13.0 omu and 11.5 omu (2×) and 10.5 omu
W7/Wo [5, 10]: 1.087 and 1.207 and 1.028 and 1.097
T/C ([5]; 257 mg/kg po(×5)): 66.82* %
T7/To ([5]; 257 mg/kg po(×5), group mean): 0.922±0.042
W7/Wo ([5]; 257 mg/kg po(×5), group mean): 1.080±0.035
Body weight 7 days after transplantation (W7) [5, 11]: 21.7 g and 23.2 g and 18.2 g and 19.4 g
T7/To [5, 11]: 0.896 and 1.037 and 0.833 and 0.923
Tumor 7 days after transplantation (T7) [5, 11]: 13.0 omu and 14.0 omu and 12.5 omu and 12.0 omu
W7/Wo [5, 11]: 1.109 and 1.166 and 1.011 and 1.037

[NH3C3H7(iso)]6 [Mo7O24H] mixture [Compound C]
Average weight of tumor [6]: 1425.2±130.6(10) mg
Number of tumorless mice /total number of mice [6]: 0/10
Change in body weight ([6]; body weight 13 days after transplantation): -2.19 g
T/control ([6]; tumor weight): 0.553
Average number of days of survival (methyl cholanthrene A [7]; ip×9): 30.2±2.0(10) days
Number of toxically killed mice/total number of mice (methyl cholanthrene A [7]; ip×9): 0/10
Change in body weight (methyl cholanthrene A [7]; ip×9, D1~D9): -2.19 g
T/control (methyl cholanthrene A [7]; ip×9, days of survival): 134.2

K6 [Mo7O23(O2)] • 8H2O [Compound K]
Average number of days of survival (MM-46 breast cancer [3]): 32.1±2.7(8) days
Average weight of tumor after 14 days (MM-46 breast cancer [3]): 1140± 221(8) mg
Ratio of elongation of life (5) (MM-46 breast cancer [3]): 94.5
Average weight of tumor (MM-46 breast cancer [4]): 1139.5±221.1(8 ) mg
Number of tumorless mice /total number of mice (MM-46 breast cancer [4]): 0/8
T/control (MM-46 breast cancer [4]): 0.399
